{
  "source": "paper PMC5893557",
  "about": "“Small tumor necrosis factor receptor biologics inhibit the tumor necrosis factor-p38 signalling axis and inflammation” (Nature Communications, 2018)",
  "target": "T1, recombinant human soluble TNFRI (Homo sapiens, UniProt P19438)",
  "T1 construct": "rHusTNFRI (22–211), prepared as a chimeric protein; Fc portion of human IgG1; 6x histidine; purchased ProSpec-Tany TechnoGene Ltd (Rehovot, Israel)",
  "T1 sequence (P19438 22-211)": "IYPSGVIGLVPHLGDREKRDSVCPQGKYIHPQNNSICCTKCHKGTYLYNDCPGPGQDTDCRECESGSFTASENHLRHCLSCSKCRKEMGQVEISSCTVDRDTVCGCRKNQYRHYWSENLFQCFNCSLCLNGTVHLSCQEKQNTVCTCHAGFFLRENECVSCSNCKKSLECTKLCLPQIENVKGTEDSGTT",
  "assay": "Inhibition of biotin-labelled TNF70–80 binding to immobilised soluble TNFRI",
  "conditions": "tested at 1 mM in the presence of 10 μM biotinylated TNF70–80",
  "method": "Microtitre plates were coated with 100 μl/well of 3 μg/ml rHusTNFRI (ProSpec-Tany TechnoGene Ltd, Rehovot, Isreal) in 18MQ-cm H2O overnight at 4 °C and blocked with 1% BSA and 0.05% Tween-20 in PBS for 1 h at 4 °C. Aliquot of 10 μM of biotin-labelled TNF70–80 (Auspep Pty, Ltd., Tullamarine, VIC, Australia) plus various concentrations of unlabelled TNF70–80 or control peptide were added to each well and incubated for 3 h at 4 °C. The wells were washed four times with wash buffer (PBS containing 0.05% Tween-20) and the plates were incubated with 100 μl/well of poly-horseradish peroxidase streptavidin conjugate (1/6000 dilution in 1% BSA and 0.05% Tween-20 in PBS) for 45 min at 4 °C. Wells were washed four times with wash buffer and bound enzyme detected by the addition of 3′,3′,5′,5′-tetramethylbenzidine (TMB) substrate (Sigma-Aldrich, Castle Hill, NSW, Australia). Absorbance was measured using dual filter at 570/450 nm on a Dynatech MR700 Plate Reader (Guernsey, Channel Islands).",
  "data": [
    {"sequence": "GGDPGIVTH [scrambled peptide (GGDPGIVTH), control peptide of TNF70–80 (…)]", "values": [
      {"measurement": "binding to immobilised TNFR1 (competition with biotinylated TNF70–80)", "value": "Lack of binding"}
    ]}
  ]
}
